According to ChEMBL document CHEMBL5046282, “Discovery of Brain-Penetrant Glucosylceramide Synthase Inhibitors with a Novel Pharmacophore” (J Med Chem, 2022):
Converted amounts (≈) assume the structure as drawn.

Experiments:
[1] = 1-Octanol/aqueous buffer partition coefficient, logD of the compound at pH 7.4 by chromatographic method; format: physicochemical
[2] = Kinetic solubility of the compound in JP2 fluid at pH 6.8 by precipitation method; format: physicochemical; conditions: read-out: Kinetic_solubility
[3] = Intrinsic clearance in mouse liver microsomes at 1 uM in presence of NADPH generating system assessed per mg protein by LC-MS/MS analysis; format: ADME, Microsome; conditions: read-out: CLH
hERG [4] = target: T1, hERG (Homo sapiens, UniProt Q12809); assay: Inhibition of hERG expressed in CHO-K1 cells at 10 uM incubated for 5 mins by whole cell-automated voltage clamp analysis; format: toxicity, cell-based; conditions: CHO-K1 cells expressing hERG
[5] = Efflux ratio of apparent permeability from basolateral to apical side over apical to basolateral side in dog MDCK-MDR1 cells at 1 uM measured after 1 hr by LC-MS/MS analysis; format: ADME, cell-based, Canis lupus familiaris
[6] = target: T2, Ceramide glucosyltransferase (Mus musculus, UniProt O88693); assay: Inhibition of mouse GCS using C8-ceramide and UDP-glucose as substrate incubated for 1 hr by RapidFire mass spectrometry
T2 sequence (O88693 whole entry): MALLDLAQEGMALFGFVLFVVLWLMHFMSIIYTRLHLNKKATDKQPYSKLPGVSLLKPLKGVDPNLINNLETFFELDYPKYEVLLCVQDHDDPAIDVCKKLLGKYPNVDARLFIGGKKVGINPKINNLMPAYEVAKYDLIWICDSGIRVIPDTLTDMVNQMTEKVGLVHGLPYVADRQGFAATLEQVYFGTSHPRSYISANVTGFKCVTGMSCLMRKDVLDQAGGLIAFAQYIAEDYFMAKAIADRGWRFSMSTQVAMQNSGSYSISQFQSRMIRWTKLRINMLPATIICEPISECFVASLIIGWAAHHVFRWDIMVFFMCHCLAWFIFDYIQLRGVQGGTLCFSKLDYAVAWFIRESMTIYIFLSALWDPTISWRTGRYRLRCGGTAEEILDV

CYP1A2 = target: T3, CYP1A2 (Homo sapiens, UniProt P05177); assay: Inhibition of CYP1A2 in human liver microsomes using tacrine as substrate at 10 uM in presence of NADPH generating system incubated for 10 mins; format: ADME; conditions: probe tacrine
T3 sequence (P05177 whole entry): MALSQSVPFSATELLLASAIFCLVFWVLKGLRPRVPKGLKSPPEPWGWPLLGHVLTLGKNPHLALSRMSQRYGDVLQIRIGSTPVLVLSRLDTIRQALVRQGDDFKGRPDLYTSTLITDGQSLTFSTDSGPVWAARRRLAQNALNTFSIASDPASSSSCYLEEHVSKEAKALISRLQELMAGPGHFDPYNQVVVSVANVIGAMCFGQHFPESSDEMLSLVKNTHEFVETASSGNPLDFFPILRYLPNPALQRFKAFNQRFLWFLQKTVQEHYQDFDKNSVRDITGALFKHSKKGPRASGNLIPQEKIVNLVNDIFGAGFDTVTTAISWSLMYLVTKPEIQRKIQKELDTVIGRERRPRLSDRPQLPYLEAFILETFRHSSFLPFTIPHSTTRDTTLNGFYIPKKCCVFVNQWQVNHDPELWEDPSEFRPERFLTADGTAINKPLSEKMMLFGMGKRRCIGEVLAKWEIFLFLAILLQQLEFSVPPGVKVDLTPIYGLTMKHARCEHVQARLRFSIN

CYP2C8 = target: T4, CYP2C8 (Homo sapiens, UniProt P10632); assay: Inhibition of CYP2C8 in human liver microsomes using paclitaxel as substrate at 10 uM in presence of NADPH generating system incubated for 10 mins; format: ADME; conditions: probe paclitaxel
T4 sequence (P10632 whole entry): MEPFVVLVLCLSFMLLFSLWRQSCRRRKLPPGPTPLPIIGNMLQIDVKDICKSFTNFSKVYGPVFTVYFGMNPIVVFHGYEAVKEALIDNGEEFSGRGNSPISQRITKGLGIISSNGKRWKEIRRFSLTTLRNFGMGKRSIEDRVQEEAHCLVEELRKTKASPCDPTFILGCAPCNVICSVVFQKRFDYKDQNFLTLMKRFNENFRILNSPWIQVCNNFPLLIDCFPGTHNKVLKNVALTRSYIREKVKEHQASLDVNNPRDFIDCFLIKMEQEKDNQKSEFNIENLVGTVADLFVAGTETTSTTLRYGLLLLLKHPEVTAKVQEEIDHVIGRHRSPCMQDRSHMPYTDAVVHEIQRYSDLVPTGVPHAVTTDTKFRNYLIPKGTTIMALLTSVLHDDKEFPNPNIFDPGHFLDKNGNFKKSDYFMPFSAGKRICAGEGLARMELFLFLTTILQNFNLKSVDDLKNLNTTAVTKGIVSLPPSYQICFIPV

CYP2C9 = CYP2C9 (Homo sapiens, UniProt P11712); assay: Inhibition of CYP2C9 in human liver microsomes using tolbutamide as substrate at 10 uM in presence of NADPH generating system incubated for 10 mins; format: ADME; conditions: probe tolbutamide
CYP2D6 = CYP2D6 (Homo sapiens, UniProt P10635); assay: Inhibition of CYP2D6 in human liver microsomes using dextromethorphan as substrate at 10 uM in presence of NADPH generating system incubated for 10 mins; format: ADME; conditions: probe dextromethorphan
CYP3A4 = CYP3A4 (Homo sapiens, UniProt P08684); assay: Inhibition of CYP3A4 in human liver microsomes using midazolam as substrate at 10 uM in presence of NADPH generating system incubated for 10 mins; format: ADME; conditions: probe midazolam
[7] = Plasma clearance in non-fasted ICR mouse at 0.5 mg/kg, iv by LC-MS/MS analysis; format: ADME, organism-based
[8] = Volume of distribution at steady state in non-fasted ICR mouse at 0.5 mg/kg, iv by LC-MS/MS analysis; format: ADME, organism-based; conditions: in vivo, read-out: Vdss
[9] = MRT in non-fasted ICR mouse at 0.5 mg/kg, iv by LC-MS/MS analysis; format: ADME, organism-based; conditions: in vivo
[10] = Cmax in non-fasted ICR mouse at 5 mg/kg, po by LC-MS/MS analysis; format: ADME, organism-based; parameters: route oral, dose 5 mg/kg; conditions: in vivo
[11] = AUC in non-fasted ICR mouse at 5 mg/kg, po by LC-MS/MS analysis; format: ADME, organism-based; parameters: dose 5 mg/kg; conditions: in vivo
[12] = MRT in non-fasted ICR mouse at 5 mg/kg, po by LC-MS/MS analysis; format: ADME, organism-based; conditions: in vivo
[13] = Ratio of unbound drug concentration in brain to plasma of non-fasted ICR mouse at 30 mg/kg, po measured after 1 hr by LC-MS/MS analysis; format: ADME, organism-based; conditions: read-out: K(p,uu,brain)
[14] = Unbound drug concentration in brain of non-fasted ICR mouse at 30 mg/kg, po measured after 1 hr by LC-MS/MS analysis; format: ADME, organism-based; conditions: in vivo
hERG [15] = target: T1, hERG; assay: Inhibition of hERG expressed in CHO-K1 cells at 30 uM by automated whole cell patch clamp assay; format: toxicity, cell-based; conditions: CHO-K1 cells expressing hERG
Cav1.2 = Cav1.2 (Homo sapiens, UniProt Q13936); assay: Inhibition of human Cav1.2 expressed in HEK293 cells at 30 uM by automated electrophysiology QPatch HT assay; format: toxicity, cell-based; conditions: HEK293 cells expressing Cav1.2
Nav1.5 = Nav1.5 (Homo sapiens, UniProt Q14524); assay: Inhibition of human Nav1.5 at 30 uM by automated whole cell patch clamp assay; format: toxicity
[16] = Cardiotoxicity in human iPSC-derived cardiomyocytes assessed as induction of proarrhythmic activity at 30 uM by Fluo-4 dye based fluorescence analysis; format: toxicity; conditions: cardiac muscle cell
[17] = Toxicity in Sprague-Dawley rat assessed as reduction in body weight at 30 to 100 mg/kg, po administered once daily for 3 days; format: organism-based; conditions: in vivo, 72 h, dose 30-100 mg/kg, time 3 day
[18] = target: Sodium-dependent serotonin transporter (Homo sapiens, UniProt P31645); assay: Inhibition of human SERT; format: toxicity
[19] = target: Ceramide glucosyltransferase (Homo sapiens, UniProt Q16739); assay: Inhibition of GCS in GBA mutant human fibroblasts assessed as reduction in glucosylceramide level incubated for 4 days by RapdiFire-MS/MS analysis; format: cell-based; conditions: fibroblast
[20] = Oral bioavailability in non-fasted ICR mouse at 5 mg/kg by LC-MS/MS analysis; format: ADME, organism-based; conditions: in vivo
[21] = Toxicity in C57BL/6J mouse assessed as change in body weight at 30 to 100 mg/kg, po; format: organism-based; conditions: in vivo, dose 30-100 mg/kg
[22] = Cardiotoxicity in human iPSC-derived cardiomyocytes assessed as minimum effective concentration required for intracellular calcium transients-mediated proarrhythmic activity by Fluo-4 dye based fluorescence analysis; format: toxicity; conditions: cardiac muscle cell

T1 sequence (Q12809 whole entry): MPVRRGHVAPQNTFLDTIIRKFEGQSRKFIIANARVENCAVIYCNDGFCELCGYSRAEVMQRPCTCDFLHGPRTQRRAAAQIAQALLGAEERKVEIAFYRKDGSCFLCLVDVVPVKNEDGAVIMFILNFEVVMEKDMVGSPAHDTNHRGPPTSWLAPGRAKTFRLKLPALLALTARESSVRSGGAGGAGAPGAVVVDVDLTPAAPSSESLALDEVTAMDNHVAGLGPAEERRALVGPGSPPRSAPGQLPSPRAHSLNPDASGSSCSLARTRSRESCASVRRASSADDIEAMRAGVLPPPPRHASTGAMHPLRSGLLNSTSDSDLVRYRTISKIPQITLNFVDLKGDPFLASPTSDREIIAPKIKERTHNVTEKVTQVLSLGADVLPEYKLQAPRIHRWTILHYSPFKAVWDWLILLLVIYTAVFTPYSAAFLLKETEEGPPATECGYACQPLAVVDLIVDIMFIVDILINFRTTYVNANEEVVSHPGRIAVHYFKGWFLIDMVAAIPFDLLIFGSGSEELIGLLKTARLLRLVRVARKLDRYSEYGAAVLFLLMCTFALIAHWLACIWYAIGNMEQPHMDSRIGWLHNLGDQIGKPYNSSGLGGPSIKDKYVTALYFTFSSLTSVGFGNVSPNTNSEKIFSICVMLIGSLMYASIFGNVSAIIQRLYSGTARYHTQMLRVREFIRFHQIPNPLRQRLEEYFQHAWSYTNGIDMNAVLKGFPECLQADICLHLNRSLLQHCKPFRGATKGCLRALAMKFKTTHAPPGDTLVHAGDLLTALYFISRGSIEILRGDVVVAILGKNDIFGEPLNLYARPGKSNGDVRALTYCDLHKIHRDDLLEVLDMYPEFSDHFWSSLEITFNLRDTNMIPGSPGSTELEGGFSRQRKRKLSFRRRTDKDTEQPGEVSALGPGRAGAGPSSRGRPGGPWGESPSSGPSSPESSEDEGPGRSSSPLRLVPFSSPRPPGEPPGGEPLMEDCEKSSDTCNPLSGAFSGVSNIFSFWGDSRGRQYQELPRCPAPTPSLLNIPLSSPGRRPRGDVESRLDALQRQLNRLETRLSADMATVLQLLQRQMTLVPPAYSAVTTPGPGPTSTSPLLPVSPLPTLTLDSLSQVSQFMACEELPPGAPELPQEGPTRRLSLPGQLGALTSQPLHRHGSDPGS
Sequence of CYP2C9 (P11712 whole entry): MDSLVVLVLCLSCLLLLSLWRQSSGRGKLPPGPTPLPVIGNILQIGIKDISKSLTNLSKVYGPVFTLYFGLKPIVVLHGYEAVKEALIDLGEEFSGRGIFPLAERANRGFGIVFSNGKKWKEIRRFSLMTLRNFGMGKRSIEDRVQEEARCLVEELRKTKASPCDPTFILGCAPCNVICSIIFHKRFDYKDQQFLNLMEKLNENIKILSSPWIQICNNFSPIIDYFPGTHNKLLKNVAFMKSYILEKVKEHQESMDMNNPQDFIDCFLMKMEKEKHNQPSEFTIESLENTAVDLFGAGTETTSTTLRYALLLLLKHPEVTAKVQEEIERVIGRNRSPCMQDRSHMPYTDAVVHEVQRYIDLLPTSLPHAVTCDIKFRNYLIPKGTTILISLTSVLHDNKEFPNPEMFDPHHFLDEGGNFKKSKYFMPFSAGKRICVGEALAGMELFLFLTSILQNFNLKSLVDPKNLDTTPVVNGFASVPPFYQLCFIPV
Sequence of Ceramide glucosyltransferase (Homo sapiens, UniProt Q16739) (Q16739 whole entry, looked up, change not shown): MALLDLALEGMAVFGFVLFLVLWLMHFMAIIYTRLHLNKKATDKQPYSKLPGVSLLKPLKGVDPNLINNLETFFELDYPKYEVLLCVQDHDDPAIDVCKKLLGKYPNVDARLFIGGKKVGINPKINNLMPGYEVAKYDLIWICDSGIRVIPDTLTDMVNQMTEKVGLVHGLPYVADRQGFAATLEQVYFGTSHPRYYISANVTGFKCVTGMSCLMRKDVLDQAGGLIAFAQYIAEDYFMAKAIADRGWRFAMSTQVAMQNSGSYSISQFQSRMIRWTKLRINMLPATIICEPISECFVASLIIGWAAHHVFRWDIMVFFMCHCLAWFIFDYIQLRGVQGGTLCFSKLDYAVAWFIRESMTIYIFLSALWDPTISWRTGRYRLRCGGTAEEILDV
Sequence of Cav1.2 (Q13936 whole entry): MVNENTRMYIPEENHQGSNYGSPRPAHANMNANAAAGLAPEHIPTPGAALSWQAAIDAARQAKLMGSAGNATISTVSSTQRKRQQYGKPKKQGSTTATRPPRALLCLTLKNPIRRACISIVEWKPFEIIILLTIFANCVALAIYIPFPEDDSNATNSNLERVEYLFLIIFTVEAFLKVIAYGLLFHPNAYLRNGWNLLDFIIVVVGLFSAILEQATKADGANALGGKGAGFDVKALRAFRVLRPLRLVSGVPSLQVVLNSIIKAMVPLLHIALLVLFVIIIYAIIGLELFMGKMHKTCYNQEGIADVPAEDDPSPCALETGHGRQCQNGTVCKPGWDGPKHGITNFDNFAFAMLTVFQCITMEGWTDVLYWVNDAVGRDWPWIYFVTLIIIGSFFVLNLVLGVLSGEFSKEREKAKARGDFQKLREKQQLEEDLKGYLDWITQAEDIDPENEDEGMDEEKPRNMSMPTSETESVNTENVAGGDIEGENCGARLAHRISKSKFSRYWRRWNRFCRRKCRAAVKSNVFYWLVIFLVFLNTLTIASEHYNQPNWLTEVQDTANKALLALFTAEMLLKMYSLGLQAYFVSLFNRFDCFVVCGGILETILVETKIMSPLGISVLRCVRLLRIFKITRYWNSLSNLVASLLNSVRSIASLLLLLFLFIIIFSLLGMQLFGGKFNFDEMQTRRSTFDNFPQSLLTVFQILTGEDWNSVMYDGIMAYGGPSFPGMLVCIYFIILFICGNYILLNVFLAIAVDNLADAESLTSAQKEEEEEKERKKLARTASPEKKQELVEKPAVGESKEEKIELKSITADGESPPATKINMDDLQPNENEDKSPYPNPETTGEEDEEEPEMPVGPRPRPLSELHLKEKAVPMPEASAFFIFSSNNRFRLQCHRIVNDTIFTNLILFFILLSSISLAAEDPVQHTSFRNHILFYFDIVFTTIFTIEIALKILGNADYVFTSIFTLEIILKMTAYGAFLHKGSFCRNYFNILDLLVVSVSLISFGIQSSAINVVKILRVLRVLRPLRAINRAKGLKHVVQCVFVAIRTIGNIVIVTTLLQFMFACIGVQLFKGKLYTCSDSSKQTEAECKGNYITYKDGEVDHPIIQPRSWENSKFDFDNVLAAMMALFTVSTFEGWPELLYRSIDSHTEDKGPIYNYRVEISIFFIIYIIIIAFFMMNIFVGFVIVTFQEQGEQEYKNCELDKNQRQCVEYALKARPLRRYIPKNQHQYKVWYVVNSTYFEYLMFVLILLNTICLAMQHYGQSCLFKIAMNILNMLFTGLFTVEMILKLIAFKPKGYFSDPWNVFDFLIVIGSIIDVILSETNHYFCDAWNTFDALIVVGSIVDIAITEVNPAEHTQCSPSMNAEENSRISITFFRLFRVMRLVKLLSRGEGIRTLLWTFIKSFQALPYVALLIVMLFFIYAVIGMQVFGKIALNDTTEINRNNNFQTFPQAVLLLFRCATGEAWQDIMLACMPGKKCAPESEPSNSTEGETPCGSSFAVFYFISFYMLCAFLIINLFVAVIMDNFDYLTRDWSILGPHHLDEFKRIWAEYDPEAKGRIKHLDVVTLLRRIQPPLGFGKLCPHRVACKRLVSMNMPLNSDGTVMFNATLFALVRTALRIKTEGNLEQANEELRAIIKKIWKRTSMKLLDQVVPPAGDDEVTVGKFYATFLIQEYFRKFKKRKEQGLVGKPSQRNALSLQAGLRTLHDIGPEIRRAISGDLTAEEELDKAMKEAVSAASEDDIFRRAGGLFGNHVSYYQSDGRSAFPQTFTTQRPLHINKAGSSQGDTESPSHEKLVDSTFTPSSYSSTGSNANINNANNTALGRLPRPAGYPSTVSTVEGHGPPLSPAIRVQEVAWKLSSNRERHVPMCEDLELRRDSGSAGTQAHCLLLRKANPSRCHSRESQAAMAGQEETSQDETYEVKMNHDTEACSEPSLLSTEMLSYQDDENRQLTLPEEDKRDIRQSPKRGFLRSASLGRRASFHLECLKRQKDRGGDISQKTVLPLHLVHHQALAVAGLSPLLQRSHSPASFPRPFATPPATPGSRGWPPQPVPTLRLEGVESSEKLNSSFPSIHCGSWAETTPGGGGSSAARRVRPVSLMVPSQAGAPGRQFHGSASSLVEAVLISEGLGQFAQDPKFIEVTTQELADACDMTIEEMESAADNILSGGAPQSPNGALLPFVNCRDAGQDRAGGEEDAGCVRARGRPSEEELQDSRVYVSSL
Sequence of CYP2D6 (P10635 whole entry): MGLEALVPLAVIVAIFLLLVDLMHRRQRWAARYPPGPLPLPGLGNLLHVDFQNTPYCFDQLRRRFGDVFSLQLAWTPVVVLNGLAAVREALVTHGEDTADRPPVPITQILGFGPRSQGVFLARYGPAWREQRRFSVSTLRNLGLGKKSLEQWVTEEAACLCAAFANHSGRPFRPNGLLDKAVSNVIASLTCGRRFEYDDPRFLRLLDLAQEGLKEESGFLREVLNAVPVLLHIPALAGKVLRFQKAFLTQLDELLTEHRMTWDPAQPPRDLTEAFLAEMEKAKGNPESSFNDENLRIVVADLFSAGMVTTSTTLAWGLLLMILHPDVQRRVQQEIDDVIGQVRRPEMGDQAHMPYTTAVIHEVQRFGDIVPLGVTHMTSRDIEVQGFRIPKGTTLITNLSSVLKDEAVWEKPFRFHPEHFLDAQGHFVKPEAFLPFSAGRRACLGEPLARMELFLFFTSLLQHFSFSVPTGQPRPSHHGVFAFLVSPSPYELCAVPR

chromatographic logD [1]: 2.48
solubility kinetic [2]: 5.2 µg/mL (≈ 11.3 µM)
microsomal CLint at 1 µM [3]: 6 µL/min/mg
efflux ratio at 1 h, 1 µM [5]: 9.6
IC50 [6]: 0.051 µM
inhibition at 10 min, 10 µM (CYP1A2): 5.8%
inhibition at 10 min, 10 µM (CYP2C8): 22.4%
inhibition at 10 min, 10 µM (CYP2C9): 37.9%
inhibition at 10 min, 10 µM (CYP2D6): 10.9%
inhibition at 10 min, 10 µM (CYP3A4): 15.5%
clearance [7]: 5.23 mL/min/kg
Vd [8]: 1.08 L/kg
MRT [9]: 3.44 h
Cmax [10]: 1180 ng/mL
AUC [11]: 10700 ng·h/mL
MRT [12]: 7.14 h
Kp uu at 1 h [13]: 0.11
Drug uptake(free) [14]: 0.24 µM
EC50 [19]: 0.0076 µM
bioavailability [20]: 67%
SMILES: CC(C)(O)c1ccc(N2Cc3c(ccnc3-c3ccc(F)cc3OCC(F)(F)F)C2=O)cc1
inhibition at 5 min, 10 µM (hERG [4]): 13.8%
inhibition at 30 µM (hERG [15]): 42%
inhibition at 30 µM (Cav1.2): 2.4%
inhibition at 30 µM (Nav1.5): 7.1%
Activity [16]: Non-Toxic
Activity [17]: Toxic
IC50 [18]: 0.31 µM
Activity [21]: Non-Toxic
MEC [22]: > 30 µM
